Laboratory results taken from patent US8802138B2, “Methods and compositions for improved deliver, expression or activity of RNA interference agents” (priority 2009, dated 2014).
Entries after “also recorded” stand apart in the source; their conditions may differ.

What was measured:
HS766T cells [1] = assay: Concentration-dependence of paclitaxel effect on siGLO transfection; type: cell-based, human; conditions: 10 and 50 nM for 4 hours
Protocol: (§1) The effectiveness of RIDES in enhancing the intracellular bioavailability of RNAi (i.e., promoting the delivery of RNAi to the cytosol and the release of RNAi from liposomes, endosomes or lysosomes) was studied by monitoring the intracellular trafficking and locations of lipid vectors and RNAi using confocal fluorescence microscopy. […] For monitoring the location of liposomes, rodamine-labeled lipids (red fluorescence) was added to the liposome during liposome preparation. Internalization of siGLO-containing liposomes into the cytosol of a cell yields punctuated red and green fluorescence signals.

HS766T cells [2] = assay: Cytotoxicity of 4 hour paclitaxel treatment, MTT assay; type: cell-based, human; conditions: 10 nM for 4 hours
Protocol: (§2) In vivo antitumor activity was measured in tumor-bearing animals. In vitro antitumor activity was measured in cultured cells using the microtetrazolium assay (MTT). This assay measures the ability of cells to reduce the MTT dye, and is generally used as a measurement of the total cell number.

breast MCF7 cells = assay: Paclitaxel cytotoxicity, MTT assay; type: cell-based, human
[3] = test system: prostate cancer PC3 cells; assay: siGLO release with concurrent enabler treatment, confocal microscopy; type: cell-based, human; conditions: agent concurrent with the siGLO treatment
Protocol: as §1
The study was performed in prostate cancer PC3 cells.

[4] = test system: porcine arterial smooth muscle cells; assay: Paclitaxel cytotoxicity, MTT assay, normal cells; type: cell-based
Protocol: as §2
(§3) This was evaluated in porcine arterial smooth muscle cells; the duration of drug treatment was 36 hours. […] Cytotoxicity was measured using the using the MTT assay.

pancreatic HS766T = assay: Paclitaxel cytotoxicity, MTT assay; type: cell-based, human
Protocol: as §2, §3

prostate PC3 = assay: Paclitaxel cytotoxicity, MTT assay; type: cell-based; conditions: Homo sapiens, read-out: 50% inhibition of IC50 (nM); PC3, 48 hours
[5] = test system: Hs766T, MCF7 and PC3 cells; assay: siGLO release after pretreatment with enabler agent, confocal fluorescence microscopy; type: cell-based, human; conditions: agent 4 hours, then liposomal siGLO (DC-RNAi) 6 hours
Protocol: as §1
Three studies were conducted using siGLO as the RNAi. The lipid vector was the DC liposomes. The study was performed in one or more of three human tumor cell lines, i.e., pancreatic Hs766T, breast cancer MCF7, and prostate cancer PC3.
The first study evaluated the effects of pretreatment with enabler agents. […] Additional cytotoxic agents not acting through tubulin interaction or topoisomerase inhibition, i.e., cisplatin and 5-fluorouracil, were included as side-by-side comparisons. Cells were treated with one of these agents for 4 hours, followed by incubation with liposomal siGLO for 6 hours. […] After pretreatment with enabler agent, cells were washed with cold FBS-free medium for 3 times, fixed with formalin, stained with the nucleus dye DRAQ5, and examined using confocal fluorescence microscopy. […] Because only the free siGLO (not embedded in liposomes) can enter the nucleus, the nuclear accumulation of siGLO indicates the release of RNAi from the liposomes, endosomes, or lysosomes.

[6] = concentration time product producing 50% cytotoxicity

## CC(=O)O[C@H]1C(=O)[C@@]2(C)[C@H]([C@H](OC(=O)c3ccccc3)[C@]3(O)C[C@H](OC(=O)[C@H](O)[C@@H](NC(=O)c4ccccc4)c4ccccc4)C(C)=C1C3(C)C)[C@]1(OC(C)=O)CO[C@@H]1C[C@@H]2O [paclitaxel]
HS766T cells [1]
  appearance of siGLO in the nucleus: enhanced the appearance of siGLO in the nucleus at both concentrations; also recorded: effective
HS766T cells [2]
  cytotoxicity: no apparent toxicity
Breast MCF7 cells; Homo sapiens, read-out: 50% inhibition of IC50 (nM), MCF7, 48 hours
  IC50: 5.2 nM
Breast MCF7 cells; concentration time product producing 50% cytotoxicity, MCF7
  CxT (nMxhr): 250 nMxhr
[3]
  nuclear accumulation of siGLO: extensive nuclear accumulation of siGLO
[4]; Sus scrofa, read-out: 50% inhibition of IC50 (nM), 36 hours
  IC50: 113 nM
[4]; [6]
  CxT (nMxhr): 4068 nMxhr
Pancreatic HS766T; Homo sapiens, read-out: 50% inhibition of IC50 (nM), 48 hours
  IC50: 12.7 nM
Pancreatic HS766T; [6]
  CxT (nMxhr): 610 nMxhr
Prostate PC3
  IC50: 15.5 nM
[5]
  nuclear accumulation of siGLO (release of RNAi from liposomes, endosomes or lysosomes): induced nuclear accumulation of green fluorescence signals

## COC(=O)Nc1nc2ccc(C(=O)c3cccs3)cc2[nH]1 [nocodazole]
[3]
  nuclear accumulation of siGLO: extensive nuclear accumulation of siGLO
[5]
  nuclear accumulation of siGLO (release of RNAi from liposomes, endosomes or lysosomes): induced nuclear accumulation of green fluorescence signals

## N.N.[Cl][Pt][Cl] [cisplatin]
[3]
  nuclear accumulation of siGLO: ineffective
[5]
  nuclear accumulation of siGLO (release of RNAi from liposomes, endosomes or lysosomes): did not change the punctated pattern of siGLO localization; also recorded: ineffective

## COc1cccc2c1C(=O)c1c(O)c3c(c(O)c1C2=O)C[C@@](O)(C(=O)CO)C[C@@H]3O[C@H]1C[C@H](N)[C@H](O)[C@H](C)O1 [doxorubicin]
[5]
  nuclear accumulation of siGLO (release of RNAi from liposomes, endosomes or lysosomes): induced nuclear accumulation of green fluorescence signals

## O=c1[nH]cc(F)c(=O)[nH]1 [5-fluorouracil]
[5]
  nuclear accumulation of siGLO (release of RNAi from liposomes, endosomes or lysosomes): did not change the punctated pattern of siGLO localization; also recorded: ineffective

## CC(=O)O[C@@]12CO[C@@H]1C[C@H](O)[C@@]1(C)C(=O)[C@H](O)C3=C(C)[C@@H](OC(=O)[C@H](O)[C@@H](NC(=O)OC(C)(C)C)c4ccccc4)C[C@@](O)([C@@H](OC(=O)c4ccccc4)[C@H]21)C3(C)C [docetaxel]
[5]
  nuclear accumulation of siGLO (release of RNAi from liposomes, endosomes or lysosomes): induced nuclear accumulation of green fluorescence signals

## COc1cc2c(c(OC)c1OC)-c1ccc(OC)c(=O)cc1[C@@H](NC(C)=O)CC2 [colchicine]
[5]
  nuclear accumulation of siGLO (release of RNAi from liposomes, endosomes or lysosomes): induced nuclear accumulation of green fluorescence signals

## CC[C@]1(O)C[C@H]2CN(CCc3c([nH]c4ccccc34)[C@@](C(=O)OC)(c3cc4c(cc3OC)N(C=O)[C@H]3[C@@](O)(C(=O)OC)[C@H](OC(C)=O)[C@]5(CC)C=CCN6CC[C@]43[C@@H]65)C2)C1 [vincristine]
[5]
  nuclear accumulation of siGLO (release of RNAi from liposomes, endosomes or lysosomes): induced nuclear accumulation of green fluorescence signals
